Test results as given in patent US20100063020A1, “ORAL PHARMACEUTICAL FORMULATIONS AND METHODS FOR PRODUCING AND USING SAME” (priority 2004, published 2010).
Values after ≈ are worked out from the molar mass of the structure shown. Values joined by “and” are separate entries in the source; they are usually repeats but may differ in a detail not shown here. Equal entries are not always repeated. Where two headings read alike, the source gives them in different places.

Columns and labels:
[1] = Solubility of 17-AAG in organic solvents suitable for oral administration; assay type: physicochemical
Description: In other embodiments, pharmaceutical acceptable co-solvents may be added to the phospholipid formulation to further enhance the solubility of the ansamycins. Many suitable co-solvents which are known in the art may be used. […] The resulted formulation can then be combined with any combinations of the general excipients: fillers, glidants, lubricants, disintegrants, binders, solubilizers to form the various oral compositions.

Caco-2 cell monolayer = assay: in vitro; assay type: in vitro ADME
Description: The permeability of the pharmaceutical active ingredient across the gastrointestinal membrane may be estimated from it permeability across a Caco-2 cell monolayer using standard techniques (e.g. Chong S et al. Pharmaceutical Research 1997 14(12):1835-1837). The reference is hereby expressly incorporated by reference.
Propranolol was included in each assay as a high permeability control compound.

[2] = Mouse serum pharmacokinetics of low melt 17-AAG in phospholipids; assay type: in vivo; details: Balb/C mice; for 17-AG AUCobs / 17-AG Cmax: metabolite 17-AG
Method: Blood was collected at predetermined intervals and the serum was isolated.
(§1) Six to 8 week old Balb/C mice were obtained from Harlan Sprague Dawley (Indianapolis, Ind.). The mice were maintained in sterilized filter topped cages or ventilated caging in a room with a 12 h light/12 h dark photoperiod at temperature of 21-23° C. and a relative humidity of 50±5%. Irradiated pelleted food (Harlan Teklad #7912) and autoclaved deionized water were provided ad libitum. Experiments were carried out under institutional guidelines for the proper and humane use of animals in research established by the Institute for Laboratory Animal Research (ILAR).
Drug solutions were prepared and the concentrations were adjusted so that mice received a dose of 2-15 ml/kg administered intravenously (I.V.) as a bolus, orally, or intra-peritoneally (I.P.). […] In I.V. studies blood was sampled at 1, 5, 15, 30, 90 and 120 min. In oral and I.P. studies blood was sampled at 5, 15, 30, 90, 180 minutes and in some cases up to 240 minutes. Blood was collected in capillary tubes, transferred to microcentrifuge tubes, allowed to clot and centrifuged at 14,000 g for 10 minutes at 4° C. to obtain serum.

[3] = Effect of sodium lauryl sulfate on aqueous solubility of 17-AAG; assay type: physicochemical; details: pH 6.0, sodium lauryl sulfate
Description: Formulations of the invention may contain as much as 50% SLS.

[4] = adult patients, cited from earlier work; for Cmax: read-out: Plasma Cmax
[5] = aqueous reconstituted lyophilized preparation containing sucrose; cited from earlier work
[6] = Solubility assay in simulated intestinal fluid (SIF); assay type: physicochemical; details: low melt form; simulated intestinal fluid per USP w/o pancreatin, 24 hours at 37° C.
Method: The solubility of an active ingredient may be assayed by its dissolution in a simulated intestinal fluid (SIF) (per USP w/o pancreatin). Conforma Therapeutics has developed a database of SIF solubility data using this assay for a structurally diverse set of compounds that have also been administered orally to mice.
The mixture was incubated with continuous shaking for a predetermined time and temperature, e.g., for 24 hours at 37° C. […] The solubility of the active ingredient is calculated as the difference between the initial and final concentration of the active ingredient in the supernatant normalized to the total volume of SIF used.
The tube was then sonicated for 5 minutes then incubated for 24 hours at 37° C. with shaking. […] Conforma Therapeutics has developed a database of SIF solubility data using this assay for a structurally diverse set of compounds that have also been administered orally to mice.

[7] = Mouse serum pharmacokinetics of low melt 17-AAG in PEG-Tween; assay type: in vivo; details: Balb/C mice, PO 40 mg/kg
Method: as §1, with “Dawley,” for “Dawley”, “12-h light/12-h” for “12 h light/12 h”
Drug solutions were prepared and the concentrations were adjusted so that mice received a dose of 2-15 ml/kg administered intravenously (I.V.) as a bolus, orally, or intra-peritoneally (I.P.). In I.V. studies blood was sampled at 1, 5, 15, 30, 90 and 120 min. In oral and I.P. studies blood was sampled at 5, 15, 30, 90, 180 minutes and in some cases up to 240 minutes. Blood was collected in capillary tubes, transferred to microcentrifuge tubes, allowed to clot and centrifuged at 14,000 g for 10 minutes at 4° C. to obtain serum.

[8] = Oral bioavailability of prototype 17-AAG solid dosage form (capsule) in female rats; assay type: in vivo, Sprague-Dawley rats; details: rat; for 17-AAG AUC(0-6)^b: oral capsule (17-AAG 33%, Neusilin 64%, SLS 3%), AUC estimated from 0 to 8 hrs; for 17-AAG Cmax / 17-AG Cmax / Apparent Absolute Bioavailability: oral capsule; for 17-AG Cmax: metabolite 17-AG; for Apparent Absolute Bioavailability: vs intravenous 10 mg/kg of earlier study
Method: See, Example 18. […] The average dose administered was 14.3 mg/kg.
The average dose administered was 14.3 mg/kg. Blood samples (n=11) were collected via the jugular vein catheter prior to dosing and up to 8 hrs post dosing. The blood was allowed to clot at room temperature for approximately 20 minutes and then placed on ice until centrifugation at 10,000×G for 10 minutes. Serum was collected into polypropylene tubes and frozen at −80° C. until analysis.
% F=[(Oral AUC(0-6h)×I.V. Dose)/(I.V. AUC(0-6h)×Oral Dose)]*100

[9] = PO 40 mg/kg, lipid complex, low melt form
[10] = 13.6-15.1 mg/kg, individual animal

SMILES: C=CCNC1=C2C[C@@H](C)C[C@H](OC)[C@H](O)[C@@H](C)/C=C(\C)[C@H](OC(N)=O)[C@@H](OC)/C=C\C=C(/C)C(=O)NC(=CC1=O)C2=O [Compound 17-AAG, 17-allylamino-17-demethoxygeldanamycin]
- Solubility ([1]; solvent Glycerol): 1.1 mg/mL
- Solubility ([1]; solvent Glycofurol): 47.0 mg/mL
- Solubility ([1]; solvent Labrafil (Apricot Kernol Oil PEG-6 Esters)): 2.4 mg/mL
- Solubility ([1]; solvent Labrasol (PEG-8 Caprylic/Capric Glycerides)): 16.1 mg/mL
- Solubility ([1]; solvent Polyethylene glycol 400): 12.9 mg/mL
- Solubility ([1]; solvent Propylene Carbonate): 12.8 mg/mL
- Solubility ([1]; solvent Solutol HS15): 12.4 mg/mL
- Solubility ([1]; solvent Transcutol HP (Ethoxydiglycol)): 57.7 mg/mL
- Solubility ([1]; solvent Tween 80): 33.8 mg/mL
- permeability across the Caco-2 monolayer (Caco-2 cell monolayer): 19 ×10⁻⁶ cm/s
- 17-AAG AUCobs ([2]; IP 40 mg/kg, vehicle PMSE): 1596 µg·min/mL
- 17-AAG Cmax ([2]; IP 40 mg/kg, vehicle PMSE): 11800 ng/mL
- 17-AG AUCobs ([2]; IP 40 mg/kg, vehicle PMSE): 655 µg·min/mL
- 17-AG Cmax ([2]; IP 40 mg/kg, vehicle PMSE): 5800 ng/mL
- % F ([2]; IP 40 mg/kg, vehicle PMSE, relative to IV 40 mg/kg): 91%
- Total Absorption ([2]; IP 40 mg/kg, vehicle PMSE, 17-AAG and 17-AG relative to IV dose): 96%
- 17-AAG AUCobs ([2]; IV 40 mg/kg, vehicle PET): 1752 µg·min/mL
- 17-AAG Cmax ([2]; IV 40 mg/kg, vehicle PET): 54500 ng/mL
- 17-AG AUCobs ([2]; IV 40 mg/kg, vehicle PET): 595 µg·min/mL
- 17-AG Cmax ([2]; IV 40 mg/kg, vehicle PET): 6200 ng/mL
- 17-AAG AUCobs [2, 9]: 953 µg·min/mL
- 17-AAG Cmax [2, 9]: 7500 ng/mL
- 17-AG AUCobs ([2]; PO 40 mg/kg, lipid complex): 532 µg·min/mL
- 17-AG Cmax ([2]; PO 40 mg/kg, lipid complex): 4500 ng/mL
- aqueous solubility versus SLS concentration [3]: increases linearly with increasing concentration of SLS
- maximum tolerated dose (MTD) ([4]; daily 1-hour infusion for 5 days every three weeks): 40 mg/m^2
- clearance ([4]; mean±SD): 41.0 ± 13.5 L/h
- terminal half-life ([4]; mean±SD): 2.5 ± 0.5 h
- Cmax ([4]; 40 mg/m^2): 1860 ± 660 nM
- Cmax ([4]; 56 mg/m^2): 3170 ± 1310 nM
- oral bioavailability [5]: 24%
- solubility in SIF [6]: 0.088 mg/mL (≈ 150 µM)
- 17-AAG AUCobs ([7]; low melt form): 433 µg·min/mL
- 17-AAG Cmax ([7]; low melt form): 5000 ng/mL
- 17-AG AUCobs ([7]; metabolite 17-AG): 163 µg·min/mL
- 17-AG Cmax ([7]; metabolite 17-AG): 2400 ng/mL
- % F ([7]; relative to IV 40 mg/kg): 25%
- 17-AAG AUC(0-6)^b [8, 10]: 32 µg·min/mL and 19 µg·min/mL and 34 µg·min/mL
- 17-AAG AUC(0-6)^b ([8]; mean dose 14.3 mg/kg, mean n=3): 28 µg·min/mL
- 17-AAG Cmax [8, 10]: 158 ng/mL and 117 ng/mL and 141 ng/mL
- 17-AG Cmax [8, 10]: 70 ng/mL and 61 ng/mL and 52 ng/mL
- Apparent Absolute Bioavailability [8, 10]: 15% and 8% and 16%
- 17-AAG Cmax ([8]; mean dose 14.3 mg/kg, mean n=3): 139 ± 21 ng/mL
- 17-AG Cmax ([8]; mean dose 14.3 mg/kg, mean n=3): 61 ± 9 ng/mL
- Apparent Absolute Bioavailability ([8]; mean dose 14.3 mg/kg, mean n=3): 13±4%
